According to ChEMBL document CHEMBL1743341, “Cytochrome p450 enzymes mechanism based inhibitors: common sub-structures and reactivity” (Curr Drug Metab, 2005):
Each block holds one molecule with its values, some of them ahead of it.

How the values were obtained:
CYP3A4 [1] = target: T1, CYP3A4 (Homo sapiens, UniProt P08684); assay: (§1) Mechanism based inhibition of human cytochrome P450 3A4 measured by testosterone 6-beta hydroxylation using human liver microsomes; format: ADME, Microsome; conditions: human, liver microsomes, probe testosterone (6-beta hydroxylation)
Cytochrome P450 3A4 [2] = target: T2, Cytochrome P450 3A4 (Homo sapiens, UniProt P08684); assay: as §1; format: ADME, Microsome
CYP3A4 [3] = target: T1, CYP3A4; assay: (§2) Mechanism based inhibition of human cytochrome P450 3A4 measured by testosterone 6-beta hydroxylation using a recombinant system; format: ADME; conditions: human, recombinant CYP3A4 system, probe testosterone (6-beta hydroxylation)
Cytochrome P450 3A4 [4] = target: T2, Cytochrome P450 3A4; assay: as §2; format: ADME
CYP3A4 [5] = target: T1, CYP3A4; assay: (§3) Mechanism based inhibition of human cytochrome P450 3A4 using expressed CYP3A4 cDNA; format: ADME; conditions: human, cDNA-expressed CYP3A4
Cytochrome P450 3A4 [6] = target: T2, Cytochrome P450 3A4; assay: as §3; format: ADME
CYP3A5 = CYP3A5 (Homo sapiens, UniProt P20815); assay: (§4) Mechanism based inhibition of human cytochrome P450 3A5 using expressed CYP3A5 cDNA; format: ADME; conditions: human, cDNA-expressed CYP3A5
Cytochrome P450 3A5 = Cytochrome P450 3A5 (Homo sapiens, UniProt P20815); assay: as §4; format: ADME
CYP2D6 = CYP2D6 (Homo sapiens, UniProt P10635); assay: (§5) Mechanism based inhibition of human cytochrome P450 2D6 measured by dextromethorphan O-demethylation; format: ADME; conditions: human, probe dextromethorphan
Cytochrome P450 2D6 [7] = target: T3, Cytochrome P450 2D6 (Homo sapiens, UniProt P10635); assay: as §5; format: ADME
Cytochrome P450 2D6 [8] = target: T3, Cytochrome P450 2D6; assay: Mechanism based inhibition of human cytochrome P450 2D6, partition ratio; format: ADME
Cytochrome P450 3A4 [9] = target: T2, Cytochrome P450 3A4; assay: Mechanism based inhibition of human cytochrome P450 3A4 measured by testosterone 6-beta hydroxylation; format: ADME
CYP3A4 [10] = target: T1, CYP3A4; assay: Mechanism based inhibition of human cytochrome P450 3A4 measured by triazolam 4- hydroxylation using human liver microsomes; format: ADME, Microsome; conditions: probe triazolam (4-hydroxylation)
CYP3A4 [11] = target: T1, CYP3A4; assay: Mechanism based inhibition of human cytochrome P450 3A4 measured by triazolam 4- hydroxylation using recombinant CYP3A4; format: ADME; conditions: recombinant CYP3A4, probe triazolam (4-hydroxylation)
CYP3A4 [12] = target: T1, CYP3A4; assay: Mechanism based inhibition of human cytochrome P450 3A4 measured by triazolam alpha- hydroxylation using human liver microsomes; format: ADME, Microsome; conditions: probe triazolam (alpha-hydroxylation)
CYP3A4 [13] = target: T1, CYP3A4; assay: Mechanism based inhibition of human cytochrome P450 3A4 measured by triazolam alpha- hydroxylation using recombinant CYP3A4; format: ADME; conditions: recombinant CYP3A4, probe triazolam (alpha-hydroxylation)
CYP2C9 = CYP2C9 (Homo sapiens, UniProt P11712); assay: (§6) Mechanism based inhibition of human cytochrome P450 2C9; format: ADME; conditions: human
Cytochrome P450 2C9 [14] = target: T4, Cytochrome P450 2C9 (Homo sapiens, UniProt P11712); assay: as §6; format: ADME
Cytochrome P450 2C9 [15] = target: T4, Cytochrome P450 2C9; assay: Mechanism based inhibition of human cytochrome P450 2C9, partition ratio; format: ADME
Cytochrome P450 3A4 [16] = target: T2, Cytochrome P450 3A4; assay: Mechanism based inhibition of human cytochrome P450 3A4 measured by midazolam hydroxylase activity; format: ADME

T1 sequence (P08684 whole entry): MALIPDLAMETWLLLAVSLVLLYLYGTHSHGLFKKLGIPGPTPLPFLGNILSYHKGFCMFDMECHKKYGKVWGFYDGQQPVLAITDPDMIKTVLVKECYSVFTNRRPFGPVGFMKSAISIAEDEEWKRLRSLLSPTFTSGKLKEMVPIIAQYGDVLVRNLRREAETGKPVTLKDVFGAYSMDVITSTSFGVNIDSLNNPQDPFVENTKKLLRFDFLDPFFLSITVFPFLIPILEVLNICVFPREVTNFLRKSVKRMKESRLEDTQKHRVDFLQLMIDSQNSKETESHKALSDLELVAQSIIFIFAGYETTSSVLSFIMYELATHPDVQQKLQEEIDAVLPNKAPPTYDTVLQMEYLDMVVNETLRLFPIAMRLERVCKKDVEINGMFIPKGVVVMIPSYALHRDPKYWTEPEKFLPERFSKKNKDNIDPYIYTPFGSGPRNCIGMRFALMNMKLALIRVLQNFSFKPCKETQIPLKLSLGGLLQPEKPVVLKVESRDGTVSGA
T2 sequence (P08684 whole entry): as above
T3 sequence (P10635 whole entry): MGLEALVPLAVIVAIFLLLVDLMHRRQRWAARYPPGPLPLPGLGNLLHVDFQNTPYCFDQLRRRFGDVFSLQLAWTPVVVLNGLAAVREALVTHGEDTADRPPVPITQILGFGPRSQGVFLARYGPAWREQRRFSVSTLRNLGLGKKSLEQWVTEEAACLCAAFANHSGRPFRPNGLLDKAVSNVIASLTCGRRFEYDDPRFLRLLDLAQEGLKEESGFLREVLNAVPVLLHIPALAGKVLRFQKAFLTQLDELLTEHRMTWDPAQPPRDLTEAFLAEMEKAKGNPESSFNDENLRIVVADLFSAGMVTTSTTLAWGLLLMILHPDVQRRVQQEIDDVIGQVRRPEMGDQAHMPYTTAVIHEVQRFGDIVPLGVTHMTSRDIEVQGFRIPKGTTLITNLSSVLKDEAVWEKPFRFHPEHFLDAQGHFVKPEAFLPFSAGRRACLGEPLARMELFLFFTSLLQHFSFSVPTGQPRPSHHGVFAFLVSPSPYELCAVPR
T4 sequence (P11712 whole entry): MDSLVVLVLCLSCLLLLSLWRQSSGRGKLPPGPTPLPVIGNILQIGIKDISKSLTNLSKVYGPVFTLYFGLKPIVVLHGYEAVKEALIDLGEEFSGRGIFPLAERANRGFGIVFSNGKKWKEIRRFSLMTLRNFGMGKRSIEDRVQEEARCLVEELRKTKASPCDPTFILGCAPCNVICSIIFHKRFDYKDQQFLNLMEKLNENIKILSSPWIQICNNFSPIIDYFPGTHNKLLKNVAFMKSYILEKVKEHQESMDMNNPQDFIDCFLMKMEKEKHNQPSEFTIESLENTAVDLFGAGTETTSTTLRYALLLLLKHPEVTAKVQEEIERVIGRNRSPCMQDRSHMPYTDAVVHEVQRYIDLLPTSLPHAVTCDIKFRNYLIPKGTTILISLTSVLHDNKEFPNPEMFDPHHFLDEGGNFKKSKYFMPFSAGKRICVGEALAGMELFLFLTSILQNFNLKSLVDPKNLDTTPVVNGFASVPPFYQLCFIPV
Sequence of Cytochrome P450 3A5 (P20815 whole entry): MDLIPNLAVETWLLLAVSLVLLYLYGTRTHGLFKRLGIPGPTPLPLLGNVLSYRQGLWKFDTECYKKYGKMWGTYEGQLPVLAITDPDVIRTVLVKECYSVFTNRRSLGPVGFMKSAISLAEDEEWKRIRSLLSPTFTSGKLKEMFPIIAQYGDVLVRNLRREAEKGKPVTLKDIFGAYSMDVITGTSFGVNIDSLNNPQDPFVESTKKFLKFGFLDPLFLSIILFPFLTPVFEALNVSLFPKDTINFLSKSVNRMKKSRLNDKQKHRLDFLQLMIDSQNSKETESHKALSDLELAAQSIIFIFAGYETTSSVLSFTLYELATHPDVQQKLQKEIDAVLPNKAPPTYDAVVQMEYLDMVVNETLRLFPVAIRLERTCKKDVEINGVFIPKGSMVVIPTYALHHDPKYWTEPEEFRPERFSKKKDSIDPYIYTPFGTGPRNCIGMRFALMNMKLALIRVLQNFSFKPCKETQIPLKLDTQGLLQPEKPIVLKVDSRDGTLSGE
Sequence of CYP3A5 (P20815 whole entry): as above
Sequence of CYP2D6 (P10635 whole entry): as the sequence (P10635 whole entry) above
Sequence of CYP2C9 (P11712 whole entry): as the sequence (P11712 whole entry) above

SMILES: CCc1nc(C)c(CN2CCN(c3cc(C(F)(F)F)ccn3)CC2)[nH]1
- kinact (CYP2D6): 0.0015 s⁻¹
- Ki (Cytochrome P450 2D6 [7]): 5.5 µM
- Partition ratio (Cytochrome P450 2D6 [8]): 99

SMILES: CC[C@H]1OC(=O)[C@H](C)[C@@H](O[C@H]2C[C@@](C)(OC)[C@@H](O)[C@H](C)O2)[C@H](C)[C@@H](O[C@@H]2O[C@H](C)C[C@H](N(C)C)[C@H]2O)[C@](C)(O)C[C@@H](C)C(=O)[C@H](C)[C@@H](O)[C@]1(C)O [ERYTHROMYCIN]
- mechanism based inhibition (Cytochrome P450 3A4 [9]): Cytochrome P450 mechanistic inhibitor: PMID 9806945
- kinact (CYP3A4 [10]): 0.000917 s⁻¹
- kinact (CYP3A4 [11]): 0.00162 s⁻¹
- kinact (CYP3A4 [12]): 0.00103 s⁻¹
- kinact (CYP3A4 [13]): 0.00288 s⁻¹

SMILES: CNCCN1C(=O)[C@H](OC(C)=O)[C@H](c2ccc(OC)cc2)Sc2ccccc21
- mechanism based inhibition (Cytochrome P450 3A4 [16]): Cytochrome P450 mechanistic inhibitor: PMID 10454485

Other lines, results leading:

- kinact (CYP3A4 [1]): 0.0035 s⁻¹
- Ki (Cytochrome P450 3A4 [2]): 2.11 µM
- kinact (CYP3A4 [3]): 0.0187 s⁻¹
- Ki (Cytochrome P450 3A4 [4]): 5.89 µM
- kinact (CYP3A4 [5]): 0.005 s⁻¹
- Ki (Cytochrome P450 3A4 [6]): 10.3 µM
- kinact (CYP3A5): 0.00117 s⁻¹
- Ki (Cytochrome P450 3A5): 4.53 µM
SMILES: COc1ccc(CCNCCCC(C#N)(c2ccc(OC)c(OC)c2)C(C)C)cc1OC (stereo not given) [NORVERAPAMIL]

- kinact (CYP2C9): 0.00152 s⁻¹
- Ki (Cytochrome P450 2C9 [14]): 3.7 µM
- Partition ratio (Cytochrome P450 2C9 [15]): 101
SMILES: CC(C(=O)O)c1ccc(C(=O)c2cccs2)cc1 (racemic) [SUPROFEN]
